The results in this text go back to patent US20260184707A1, “PHARMACEUTICAL COMPOUNDS FOR THE TREATMENT OF COMPLEMENT MEDIATED DISORDERS” (ALEXION PHARMACEUTICALS, INC., priority 2022, published 2026).

pIC50: −log10 of the molar value. A value given as a limit tells only on which side of the number the result lay.

For the assay, the target named is T1, Human complement C1s enzyme (Homo sapiens, UniProt P09871).
T1 construct: purified from human serum, Complement Technology, Inc; purchased Complement Technology, Inc; host or cells: human serum (plasma-derived native protein)
T1 sequence (P09871 438-688 limits assumed): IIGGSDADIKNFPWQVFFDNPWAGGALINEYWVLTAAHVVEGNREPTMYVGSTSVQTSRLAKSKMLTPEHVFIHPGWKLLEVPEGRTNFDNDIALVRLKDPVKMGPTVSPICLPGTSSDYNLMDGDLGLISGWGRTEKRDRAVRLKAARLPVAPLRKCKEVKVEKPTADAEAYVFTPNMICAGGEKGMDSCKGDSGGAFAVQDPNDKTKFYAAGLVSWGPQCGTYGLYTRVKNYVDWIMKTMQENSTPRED
T1 sequence (P09871 16-437 partner limits assumed): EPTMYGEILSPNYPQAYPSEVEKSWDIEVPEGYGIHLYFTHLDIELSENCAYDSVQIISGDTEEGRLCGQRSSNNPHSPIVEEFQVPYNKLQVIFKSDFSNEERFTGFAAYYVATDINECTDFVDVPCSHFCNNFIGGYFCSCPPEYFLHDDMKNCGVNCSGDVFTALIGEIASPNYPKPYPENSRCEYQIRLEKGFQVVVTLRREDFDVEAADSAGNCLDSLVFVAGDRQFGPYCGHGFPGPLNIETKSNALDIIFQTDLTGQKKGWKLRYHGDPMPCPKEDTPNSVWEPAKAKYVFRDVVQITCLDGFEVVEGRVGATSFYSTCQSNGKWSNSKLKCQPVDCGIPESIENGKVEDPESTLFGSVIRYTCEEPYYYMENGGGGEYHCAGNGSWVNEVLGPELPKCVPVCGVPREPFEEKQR
The assay can be described thus: Human C1s enzyme assay. The format is biochemical. To be noted: human complement C1s enzyme 1.16 nM, substrate Z-L-Lys-SBzl, A405; read-out: IC50 (Stars). An outline of the steps:
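Serum-purified human C1s (1.16 nM final) preincubated 5 min at room temperature with compound in 50 mM Tris, 1 M NaCl, pH 7.5. Z-L-Lys-SBzl and DTNB added at 100 μM each; A405 recorded every 30 s. IC50 from nonlinear regression of reaction rates versus compound concentration.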

As a reminder, the pIC50 is the IC50 on a negative log10 scale, so that one unit is a factor of ten. With `C[C@@H](Nc1cnc(-c2ccccc2F)n(CC(=O)NCc2cc3cnccc3[nH]2)c1=O)c1ccc2oc3ccccc3c2c1` [Compound 237, (R)-N-((1H-pyrrolo[3,2-c]pyr-idin-2-yl)methyl)-2-(5-((1-(dibenzo[b,d]furan-2-yl)ethyl)-amino)-2-(2-fluorophenyl)-6-oxopyrimidin-1(6H)-yl)acet-amide], the pIC50 was more than 7.00.

Take `CO[C@@H]1CO[C@H]2[C@@H]1OC[C@H]2Oc1ccc(-c2ncc(N[C@H](C)c3ccc4oc5ccccc5c4c3)c(=O)n2CC(=O)NCc2cc3cnccc3[nH]2)cc1` [Compound 238, N-((1H-pyrrolo[3,2-c]pyridin-2-yl)methyl)-2-(5-(((R)-1-(dibenzo[b,d]furan-2-yl)ethyl)-amino)-2-(4-(((3R,3aR,6R, 6aR)-6-methoxyhexahydrofuro [3,2-b]furan-3-yl)oxy)phenyl)-6-oxopyrimidin-1(6H)-yl)acet-amide]: the pIC50 is more than 7.00.

As to `C[C@H](NC(=O)Cn1c(-c2ccccc2)ncc(N[C@H](C)c2ccc3oc4ccccc4c3c2)c1=O)c1cc2cnccc2[nH]1` [Compound 239, N-((S)-1-(1H-pyrrolo[3,2-c]pyridin-2-yl)ethyl)-2-(5-(((R)-1-(dibenzo[b,d]furan-2-yl)-ethyl)amino)-6-oxo-2-phenyl-pyrimidin-1(6H)-yl)acetamide], the negative logarithm of the IC50 (pIC50) is less than 6.00.

As to `O=C(Cn1c(-c2ccccc2)ncc(NC(=O)c2ccc(-c3ccccc3)c(F)c2)c1=O)NCc1cc2cnccc2[nH]1` [Compound 240, N-(1-(2-(((1H-pyrrolo[3,2-c]pyridin-2-yl)methyl)amino)-2-oxoethyl)-6-oxo-2-phenyl-1,6-dihydropyrimidin-5-yl)-2-fluoro-[1,1′-biphenyl]-4-carboxamide], the pIC50 is more than 7.00.

Consider `O=C(Cn1c(C2=CCCCC2)ncc(NCc2ccc3oc4ccccc4c3c2)c1=O)NCc1cc2cnccc2[nH]1` [Compound 241, N-((1H-pyrrolo[3,2-c]pyridin-2-yl)methyl)-2-(2-(cyclohex-1-en-1-yl)-5-((dibenzo[b,d]furan-2-ylmethyl)amino)-6-oxopyrimidin-1(6H)-yl)acet-amide], for which the pIC50 was more than 7.00.

Consider `O=C(Cn1c(-c2cccnc2)ncc(NCc2ccc3oc4ccccc4c3c2)c1=O)NCc1cc2cnccc2[nH]1` [Compound 242, N-((1H-pyrrolo[3,2-c]pyridin-2-yl)methyl)-2-(5-((dibenzo [b,d]furan-2-ylmethyl)amino)-6-oxo-2-(pyridin-3-yl)pyrimi-din-1(6H)-yl)acetamide], for which the pIC50 is more than 7.00.

For `O=C(Cn1c(-c2ccccc2)ncc(NC(=O)C23CC(c4ccccc4)(C2)C3)c1=O)NCc1cc2cnccc2[nH]1` [Compound 243, N-(1-(2-(((1H-pyrrolo[3,2-c]pyridin-2-yl)methyl)amino)-2-oxoethyl)-6-oxo-2-phenyl-1,6-dihydropyrimidin-5-yl)-3-phenylbicyclo[1.1.1]pentane-1-carboxamide], the negative-log IC50 (pIC50) was 6.00 to 7.00.

With `Cc1cc(F)cc(C)c1Nc1cnc(-c2ccccc2)n(CC(=O)NCc2cc3cnccc3[nH]2)c1=O` [Compound 244, N-((1H-pyrrolo[3,2-c]pyridin-2-yl)methyl)-2-(5-((4-fluoro-2,6-dimethylphenyl)amino)-6-oxo-2-phenylpyrimidin-1(6H)-yl)acetamide], the negative logarithm of the IC50 (pIC50) was more than 7.00.

Consider `O=C(Cn1c(-c2ccccc2)ncc(Nc2ccc3c(c2)oc2ccccc23)c1=O)NCc1cc2cnccc2[nH]1` [Compound 245], for which the negative-log IC50 (pIC50) was more than 7.00.

As to `O=C(Cn1cncc(NCc2ccc3oc4ccccc4c3c2)c1=O)NCc1cc2cnccc2[nH]1` [Compound 246, 2-[5-(Dibenzofuran-2-ylmethylamino)-6-oxo-pyrimidin-1-yl]-N-(1H-pyrrolo[3,2-c]pyridine-2-ylmethyl)acetamide], the pIC50 is more than 7.00.

On to `Cc1ncc(NCc2ccc3oc4ccccc4c3c2)c(=O)n1CC(=O)NCc1cc2cnccc2[nH]1` [Compound 247, N-((1H-pyrrolo[3,2-c]pyridin-2-yl)methyl)-2-(5-((dibenzo [b,d]furan-2-ylmethyl)amino)-2-methyl-6-oxopyrimidin-1(6H)-yl)acetamide], for which the pIC50 was more than 7.00.
